According to patent US10105437B2, “Epitopes related to coeliac disease” (BTG International Limited, priority 2004, dated 2018):

Tested on: PBMC from HLA-DQ2+ coeliac subjects
Assay: Interferon gamma ELISPOT, second round wheat gliadin and glutenin 16mer library
Assay type: cell-based, human
Conditions: 16mers pre-treated with transglutaminase, 18 or 28 subjects; for subjects with >70% of maximal peptide-specific response: normalized to individual's maximal response
Description: 12mer peptides were then identified in which each potential deamidation site could be in position 4, 6 or 7 in the 9mer located within HLA-DQ2 binding groove (HLA-DQ2 anchors at these positions show a preference for glutamate). Candidate 12mer core epitope sequences were then flanked with glycine followed by the N-terminal residue present in the parent gliadin polypeptide and at the C-terminal by the C-terminal residue present in the parent gliadin polypeptide followed by glycine (i.e. GXXXXXXXQXXXXXXG (SEQ ID NO: 1936)). […]
IFNγ ELISpot assays (Mabtech, Sweden) were performed in 96-well plates (MAIP S-45, Millipore) in which each well contained 25 mcl of peptide solution and 100 mcl of PBMC (2-8×10^5/well) in RPMI containing 10% heat inactivated human AB serum. After development and drying, IFNγ ELISpot plates were assessed using the MAIP automated ELISpot plate counter. Data was then analysed according to a novel algorithm (Expectation Maximization: EM) to define and quantify interferon-gamma responses to 9mer sequences contained within the peptide library (see FIG. 3 and below). 9mer peptides were then rationalised according to an algorithm that assumes redundancy in T-cell recognition, the “IterativeCluster” algorithm (see FIG. 4 and below), by allowing groups of amino acids with similar chemical properties at any one position in the 9mer, or for glutamate to replace glutamine at any position (assuming deamidation may have occurred).
All 2nd round 16mer peptides were assessed in at least 18 subjects. […] All 16mers identified for the second round Oxford library also fulfilled the selection criteria for the Melbourne second round library.
The second round peptide library data was analysed according to the “dominance” of peptide responses in the interferon gamma ELISPOT in individual subjects i.e. the percent response of an individual's PBMC to a specific peptide normalized against that individual's maximal peptide-induced response. Sequences of peptides that stimulated at least 40% of the maximal peptide-specific response in at least one subject are shown in Table 1 below. The dataset supports the consistency and “dominance” of peptides conforming to the sequences identified using the first round 20mer peptide library using the Expectation Maximization (EM) algorithm described above.

Row | Substance | subjects with 10-40% of maximal peptide-specific response | subjects with 40-70% of maximal peptide-specific response | subjects with <10% of maximal peptide-specific response | subjects with >70% of maximal peptide-specific response
1 | G-IQVDPSGQVQWPQQ-G: wheat 16mer, second round library (GMQADPSGQVQWPQQG; Description of Artificial Sequence: Synthetic gluten peptide) | Nil | Nil | 17/18 | 1/18
2 | G-FFPQPQQQFPQPQQ-G: wheat 16mer, second round library (GFPQQPQQQFPQPQQG; Description of Artificial Sequence: Synthetic gluten peptide) | 10/28 | 1/28 | 17/28 | Nil
3 | VPLYRTTTSVPFGVGT [wheat 16mer, second round library] | Nil | Nil | 17/18 | Nil
4 | G-QQPQFSQQQQIPVI-G: wheat 16mer, second round library (PFPQPQQPFPW; Description of Artificial Sequence: Synthetic gluten peptide) | Nil | 1/28 | 17/18 | Nil
5 | QGQQGYYPTSPQQPPQ [wheat 16mer, second round library] | Nil | 1/18 | Nil | Nil
6 | G-QVSFQQPQQQYPSP-G: wheat 16mer, second round library | 4/28 | 2/28 | 22/28 | Nil
7 | G-QQPFPQPQQPFPWQ-G: wheat 16mer, second round library | 5/28 | 8/28 | 6/28 | 9/28
8 | G-QQPQQQPQQPFPQQ-G: wheat 16mer, second round library | 5/28 | 1/28 | 22/28 | Nil
9 | VAHAIIMHQQQQQQQE [wheat 16mer, second round library] | 2/28 | 1/28 | 25/28 | Nil
10 | G-LQPFPQPQLPYPQP-G: wheat 16mer, second round library (GLQPFPQPQLPYPQPG; Description of Artificial Sequence: Synthetic gluten peptide) | Nil | 8/28 | 6/28 | 14/28
11 | G-QPFPLQPQQPFPQQ-G: wheat 16mer, second round library (GQPFPWQPQQPFPQQG; Description of Artificial Sequence: Synthetic gluten peptide) | 7/28 | 2/28 | 19/28 | Nil
12 | G-LQPFPQPQLPFPQP-G: wheat 16mer, second round library (GLQPFPQPQLPFPQPG; Description of Artificial Sequence: Synthetic gluten peptide) | 5/28 | 8/28 | 10/28 | 4/28
13 | G-QQPFPQPQQPIPVQ-G: wheat 16mer, second round library | 7/28 | 5/28 | 8/28 | 8/28
14 | G-QPFPWQPQQPFPQQ-G: wheat 16mer, second round library (GQPTPIQPQQPFPQQG; Description of Artificial Sequence: Synthetic gluten peptide) | 8/28 | 2/28 | 18/28 | Nil
15 | G-QQPFPQPQQPFSQQ-G: wheat 16mer, second round library | 8/28 | 7/28 | 9/28 | 4/28
16 | G-FPQPQQPQQPFPQQ-G: wheat 16mer, second round library (GFPQPQQPQQSFPQQG; Description of Artificial Sequence: Synthetic gluten peptide) | 3/28 | 1/28 | 25/28 | Nil
17 | GQGQSGYYPTSPQQSG (QQGYYPTSPQQSGQGQ; Description of Artificial Sequence: Synthetic gluten peptide) [wheat 16mer, second round library] | 2/18 | Nil | 15/18 | 1/18
18 | GQVVNNHGQTVFNDIG [wheat 16mer, second round library] | 4/18 | 1/18 | – | Nil
19 | QGQQGYYPISPQQSGQ [wheat 16mer, second round library] | 1/18 | 1/18 | 15/18 | 1/18
20 | LEAVTSIALRTLPTMC [wheat 16mer, second round library] | 1/18 | 1/18 | – | Nil
21 | YVPPDCSTINVPYANI [wheat 16mer, second round library] | 1/18 | 1/18 | 15/18 | 1/18
22 | LALQTLPAMCNVYIPP [wheat 16mer, second round library] | Nil | Nil | 17/18 | Nil
